For assay [1], the system named is PC3 and DU145 cells. Kind of assay: Cell migration assay (Transwell). The assay is classed as cell-based, human. To be noted: for PC3 and DU145 migration: 10 μM, 4 h in situ. The procedure:
(§1) Inhibitors were dissolved in DMSO and diluted into media or buffer prior to cell or proteome treatment, respectively. For in vitro treatment, final DMSO concentration was 4%. For in situ treatments of cells for ABPP, lipid measurements, migration, cell-survival, and invasion assays, 2×10^6 cells were seeded in 6 cm dishes (˜100% confluency) 24 h prior to inhibitor pre-treatment (in DMSO at 0.1% final concentration) in serum-free media (3 mL) for the designated time before harvesting cells for ABPP or lipid measurements or before the initiation of migration, cell-survival, and invasion assays.
(§2) Cell migration, cell survival, and invasion studies were performed as previously described (Nomura et al., 2010). Briefly, migration assays were performed in Transwell chambers (Corning) with 8 μm pore-sized membranes coated with 10 μg/mL collagen at 37° C. for LNCaP (24 h), PC3 (4 h) and DU145 cells (24 h), respectively. Cell survival assays were performed using the Cell Proliferation Reagent WST-1 (Roche) Invasion assays were conducted using the BD Matrigel Invasion Chambers per the manufacturer's protocol. Inhibitors were preincubated for the stated duration before seeding cells into migration, cell-survival, or invasion chambers. Prior to seeding the cells in these chambers, cells were serum-starved for 4 h. Inhibitors were also present during the migration, cell-survival, and invasion assays.

A further assay has as its target T1, AChE (Mus musculus, UniProt P21836).
T1 construct: 20 μg of cell lysate or mouse brain membrane proteome; from tissue; host or cells: mouse brain (membrane proteome)
T1 sequence (P21836 32-614): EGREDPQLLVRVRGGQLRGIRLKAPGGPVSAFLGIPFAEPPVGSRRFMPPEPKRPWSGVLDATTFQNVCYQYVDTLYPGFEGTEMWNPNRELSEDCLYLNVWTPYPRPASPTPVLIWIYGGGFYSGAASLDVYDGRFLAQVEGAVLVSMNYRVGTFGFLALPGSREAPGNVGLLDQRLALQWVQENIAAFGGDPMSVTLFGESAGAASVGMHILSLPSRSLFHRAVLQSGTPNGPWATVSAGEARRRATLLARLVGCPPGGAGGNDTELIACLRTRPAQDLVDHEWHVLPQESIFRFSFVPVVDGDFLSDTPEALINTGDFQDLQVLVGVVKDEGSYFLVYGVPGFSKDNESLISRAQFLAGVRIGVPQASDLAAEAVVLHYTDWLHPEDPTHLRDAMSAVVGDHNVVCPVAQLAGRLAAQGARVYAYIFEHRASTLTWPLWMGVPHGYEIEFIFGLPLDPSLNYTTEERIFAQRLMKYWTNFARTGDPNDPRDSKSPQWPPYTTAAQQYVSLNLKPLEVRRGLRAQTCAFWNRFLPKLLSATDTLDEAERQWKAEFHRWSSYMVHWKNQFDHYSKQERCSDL
Kind of assay: AChE activity assay with acetylthiocholine in mouse brain proteome. The assay is classed as biochemical. To be noted: for Cross-reactivity with AChE: acetylthiocholine hydrolysis in mouse brain membrane proteome; for IC50: mouse brain proteome, substrate acetylthiocholine, n=3, read-out: IC50 for AChE (FIG. 2D). The procedure:
AChE activity was measured using a method similar to that described previously (Ellman et al., 1961). Briefly, 50 μL of 10 mM acetylthiocholine was added to 200 μL of PBS containing 2 mM DTNB and 20 μg of cell lysate or mouse brain membrane proteome. Absorbance was measured at 412 nm over 5 min, and the rate of product accumulation was calculated from the slope of the absorbance over time. For assays involving preincubation with inhibitors, the reactions were prepared without acetylthiocholine and JW480 was incubated at the indicated concentration for 30 min at 37° C. Acetylthiocholine was then added and the assay was carried out exactly as described above.

In assay [2] the test system is PC3 and DU145 cells. Kind of assay: Invasion assay (Matrigel chambers). To be noted: for PC3 and DU145 invasion: 10 μM, 4 h in situ. It is filed as cell-based, human. The procedure:
as §1, §2

In a further assay the target is T2, KIAA1363 (Mus musculus, UniProt Q8BLF1).
T2 construct: ABPP analysis of KIAA1363 activity in mouse brain membrane proteome; from tissue; host or cells: mouse brain (membrane fraction)
T2 sequence (Q8BLF1 1-408): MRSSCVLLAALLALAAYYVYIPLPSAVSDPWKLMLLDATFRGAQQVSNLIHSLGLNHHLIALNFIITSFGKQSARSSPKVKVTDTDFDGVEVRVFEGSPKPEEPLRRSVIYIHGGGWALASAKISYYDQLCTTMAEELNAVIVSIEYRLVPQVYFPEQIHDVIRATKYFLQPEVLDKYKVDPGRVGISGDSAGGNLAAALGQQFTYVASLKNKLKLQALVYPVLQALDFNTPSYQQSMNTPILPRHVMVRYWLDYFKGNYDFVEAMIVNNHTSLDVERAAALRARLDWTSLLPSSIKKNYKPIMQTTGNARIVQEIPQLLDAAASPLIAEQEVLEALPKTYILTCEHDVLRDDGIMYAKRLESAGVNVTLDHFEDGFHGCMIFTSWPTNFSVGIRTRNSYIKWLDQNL
Kind of assay: Gel-based competitive ABPP of KIAA1363 in mouse brain membrane proteome (FP-rhodamine). It is filed as biochemical. The method, boiled down: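 Mouse brain membrane fraction (100,000×g pellet) in PBS pH 7.4, preincubated with inhibitor 30 min, then labelled with 1 μM FP-rhodamine for 30 min. Remaining KIAA1363 activity read by SDS/PAGE in-gel fluorescence. IC50 averaged from three replicates.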

[3] abbreviates: competitive ABPP in mouse brain proteome, n=3, read-out: IC50 for KIAA1363 (FIG. 2D).
The mark [4] stands for this setting: mouse brain KIAA1363, read-out: IC50 for KIAA1363.
Setting [5] is: mouse brain membrane proteome, inhibitor 30 min before FP-rhodamine (1 μM, 30 min), averages of three replicates, read-out: IC50 (KIAA1363).

Structures are written as SMILES. Like-named read-outs stand apart in the source and are kept apart here.

The term IC50 denotes the midpoint of a concentration-inhibition curve. In the case of `CC(C)c1ccccc1OC(=O)NCCc1ccc2ccccc2c1` [JW480, 2-isopropylphenyl (2-(naphthalen-2-yl)ethyl)carbamate], the “Migration of PC3 cells” value with PC3 and DU145 cells [1] (1 μM, 48 h in situ) is “reduced”. In addition, in the assay on PC3 and DU145 cells [1], the “PC3 and DU145 migration” value is “impair”. For the same compound, on AChE, the “Cross-reactivity with AChE” value is recorded as “negligible cross-reactivity”. Besides, the concentration for half-maximal inhibition (IC50) was more than 100000 nM on AChE; 20 nM on KIAA1363 (setting [3]); 20 nM on KIAA1363 (setting [4]); 13.9 nM at KIAA1363 (setting [5]); approximately 10 nM on KIAA1363 (screened against KIAA1363, Table 1, read-out: IC50 values of around 10 nanomolar (most potent)). In the assay on PC3 and DU145 cells [2] (1 μM, 48 h in situ), the “Invasion of PC3 cells” value is “reduced”. The “PC3 and DU145 invasion” value with PC3 and DU145 cells [2] is on record as “impair”.
Take `COc1ccc(CNC(=O)Oc2cccc3c2OC(C)(C)C3)cc1` [JW148, 2,2-dimethyl-2,3-dihydrobenzofuran-7-yl 4-methoxybenzylcarbamate]: in the assay with PC3 and DU145 cells [1], the “PC3 and DU145 migration” value is recorded as “impair”. Besides, at AChE, the “Cross-reactivity with AChE” value is recorded as “cross-reactivity”. The IC50 was 1000 nM on AChE; 200 nM on KIAA1363 (setting [3]); approximately 200 nM at KIAA1363 (setting [4]); 117 nM at KIAA1363 (setting [5]); less than 1000 nM on KIAA1363 (screened against KIAA1363, Table 1, read-out: IC50 values of less than 1 micromolar). Besides, the “PC3 and DU145 invasion” value in the assay on PC3 and DU145 cells [2] is on record as “impair”.

The values are drawn from patent US9249128B2 (priority 2010, dated 2016).
